Laboratory results: the supplement of paper PMC7661543
± gives the standard deviation of the averaged measurements.

What was measured:
Assay in all cases: relative cell number vs DMSO control (72 h) (% of DMSO); higher = less growth inhibition (more cells)
Conditions in all cases: sgRNA knockout: sgNT
[1] = test system: BT-20
Method: (§1)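 QMAP-Seq: a pool of 5 breast cancer cell lines (ZR-75-1, SKBR3, HCC-38, MDA-MB-231, BT-20), each carrying 12 doxycycline-inducible Cas9 sgRNA perturbations (11 knockouts plus non-targeting sgNT), was treated with compounds for 72 h at four 10-fold doses (10 nM-10 uM or 1 nM-1 uM range). Barcodes were amplified and sequenced, and cell number was interpolated from 293T spike-in standard curves. The result is expressed as % of the median of DMSO wells. Two biological replicates.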

[2] = test system: ZR-75-1
Method: as §1

[3] = test system: MDA-MB-231
Method: as §1

[4] = test system: HCC-38
Method: as §1

[5] = test system: SKBR3
Method: as §1

Row | Structure (SMILES) | relative cell number ([1]; 10 nM) | relative cell number ([1]; 100 nM) | relative cell number ([1]; 1000 nM) | relative cell number ([1]; 10000 nM) | relative cell number ([2]; 10 nM) | relative cell number ([2]; 100 nM) | relative cell number ([2]; 1000 nM) | relative cell number ([2]; 10000 nM) | relative cell number ([3]; 10 nM) | relative cell number ([3]; 100 nM) | relative cell number ([3]; 1000 nM) | relative cell number ([3]; 10000 nM) | relative cell number ([4]; 10 nM) | relative cell number ([4]; 100 nM) | relative cell number ([4]; 1000 nM) | relative cell number ([4]; 10000 nM) | relative cell number ([5]; 10 nM) | relative cell number ([5]; 100 nM) | relative cell number ([5]; 1000 nM) | relative cell number ([5]; 10000 nM)
1 | Cc1ncc([N+](=O)[O-])n1CC(O)CCl (stereo not given) [Ornidazole] | 103 ± 7.7 | 81.8 ± 1.3 | 96.5 ± 6.5 | 104 ± 17 | 95 ± 18 | 76.4 ± 24 | 121 ± 71 | 84.3 ± 25 | 103.6 ± 0.42 | 108 ± 7.5 | 74.3 ± 12 | 138 ± 14 | 84.2 ± 8.7 | 88.1 ± 7.5 | 114 ± 19 | 97.7 ± 13 | 70.1 ± 3.7 | 102 ± 12 | 91.3 ± 26 | 104 ± 29
2 | C=CCc1cccc(/C=N/NC(=O)CN2CCN(Cc3ccccc3)CC2)c1O [PAC1] | 92 ± 13 | 84.1 ± 14 | 74.6 ± 4.9 | 45.7 ± 18 | 99.5 ± 9.9 | 46.5 ± 24 | 89.6 ± 8.7 | 12.5 ± 5.5 | 104 ± 32 | 134.14 ± 0.028 | 109 ± 32 | 31.7 ± 4.5 | 104 ± 7.8 | 103 ± 7 | 90 ± 11 | 33.9 ± 2.5 | 68 ± 7 | 88.5 ± 14 | 68 ± 27 | 32.5 ± 11
3 | Oc1cccc(-c2nc(N3CCOCC3)c3oc4ncccc4c3n2)c1 [PI103] | 120 ± 44 | 124 ± 37 | 68.7 ± 11 | 49.7 ± 11 | 121 ± 13 | 129 ± 16 | 58 ± 21 | 18.9 ± 2.2 | 143 ± 15 | 126 ± 41 | 118 ± 15 | 37.3 ± 11 | 118 ± 1.5 | 111 ± 1.1 | 85.3 ± 4.5 | 31.4 ± 2.4 | 145 ± 47 | 134 ± 2.6 | 62.6 ± 31 | 33.1 ± 2.4
4 | CC(=O)Nc1nc(C)c(-c2ccc(Cl)c(S(=O)(=O)NCCO)c2)s1 [PIK93] | 106 ± 8.5 | 104 ± 2.3 | 98.71 ± 0.17 | 74 ± 3.9 | 128 ± 19 | 99.2 ± 33 | 61.1 ± 14 | 63.8 ± 24 | 84.5 ± 40 | 98.2 ± 31 | 88.6 ± 11 | 37.5 ± 1.5 | 115 ± 21 | 118 ± 22 | 80.4 ± 7.5 | 62.7 ± 7.3 | 112 ± 59 | 66.5 ± 30 | 94.4 ± 41 | 51.9 ± 25
5 | CCCS(=O)(=O)Nc1ccc(F)c(C(=O)c2c[nH]c3ncc(Cl)cc23)c1F [PLX4720] | 104 ± 12 | 75.4 ± 11 | 98.4 ± 7.7 | 121 ± 32 | 138 ± 42 | 96.7 ± 15 | 123 ± 22 | 173 ± 42 | 129.8 ± 0.69 | 136 ± 62 | 70.5 ± 9.8 | 98 ± 3.6 | 103 ± 13 | 109 ± 15 | 110 ± 17 | 98.3 ± 14 | 109 ± 24 | 105 ± 22 | 93.3 ± 14 | 94.8 ± 13
6 | CCC(C)SSc1ncc[nH]1 (stereo not given) [PX12] | 116 ± 7.8 | 132 ± 1.4 | 100 ± 4.2 | 99.6 ± 31 | 116 ± 19 | 102 ± 48 | 69.5 ± 9.5 | 54.7 ± 25 | 104 ± 30 | 128 ± 20 | 99.5 ± 25 | 54.6 ± 0.63 | 113 ± 8.1 | 101 ± 15 | 93.6 ± 8.6 | 84.9 ± 8.4 | 95.4 ± 14 | 95.5 ± 65 | 88.8 ± 31 | 57.7 ± 24
7 | CCOC(=O)c1ccc(N2NC(=O)C(=Cc3ccc([N+](=O)[O-])o3)C2=O)cc1 [PYR41] | 93.7 ± 24 | 101 ± 13 | 103 ± 17 | 102.7 ± 0.59 | 125 ± 29 | 72.9 ± 28 | 100 ± 1.6 | 97.4 ± 40 | 133 ± 62 | 106 ± 11 | 87.6 ± 62 | 111 ± 6.8 | 85.8 ± 4.7 | 89.9 ± 13 | 101.7 ± 0.8 | 84.8 ± 5.1 | 106 ± 8.4 | 83.5 ± 17 | 98.3 ± 18 | 64.5 ± 46
8 | CC(=O)O[C@H]1C(=O)[C@@]2(C)[C@H]([C@H](OC(=O)c3ccccc3)[C@]3(O)C[C@H](OC(=O)[C@H](O)[C@@H](NC(=O)c4ccccc4)c4ccccc4)C(C)=C1C3(C)C)[C@]1(OC(C)=O)CO[C@@H]1C[C@@H]2O [Paclitaxel] | 57.9 ± 10 | 18.7 ± 15 | 25.7 ± 9.2 | 47.3 ± 15 | 28.3 ± 2 | 18.6 ± 18 | 21.6 ± 3.9 | 43.8 ± 17 | 28.8 ± 15 | 15.6 ± 2.2 | 21.4 ± 7.8 | 29.9 ± 10 | 31.4 ± 5.5 | 14.4 ± 5.1 | 18 ± 2.9 | 25.4 ± 3.6 | 10.2 ± 2.9 | 6.23 ± 1.4 | 11.1 ± 1.4 | 16.4 ± 9.7
9 | CC(=O)c1c(C)c2cnc(Nc3ccc(N4CCNCC4)cn3)nc2n(C2CCCC2)c1=O [Palbociclib] | 87.4 ± 11 | 41.8 ± 13 | 45.8 ± 1.1 | 53.889 ± 0.041 | 66.5 ± 20 | 36.6 ± 2.5 | 30 ± 3.5 | 29.9 ± 3 | 97.3 ± 57 | 30.6 ± 16 | 22.5 ± 2.1 | 22.1 ± 6 | 74.3 ± 13 | 37.4 ± 10 | 44.4 ± 2 | 42.2 ± 0.9 | 90.3 ± 0.5 | 52.1 ± 5.9 | 51.3 ± 4.3 | 43.8 ± 16
10 | C=C1C(=O)O[C@H]2[C@H]1CC/C(C)=C/CC[C@@]1(C)O[C@@H]21 [Parthenolide] | 108 ± 14 | 101 ± 3.3 | 93.2 ± 14 | 96.5 ± 20 | 94.9 ± 35 | 128 ± 21 | 71.5 ± 53 | 122 ± 3.6 | 130 ± 77 | 123 ± 43 | 126 ± 11 | 124.5 ± 0.77 | 114 ± 6.1 | 92.6 ± 2 | 98.6 ± 16 | 113 ± 13 | 98.3 ± 24 | 122 ± 28 | 96.6 ± 16 | 98.9 ± 4.2
11 | Cc1ccc(Nc2nccc(N(C)c3ccc4c(C)n(C)nc4c3)n2)cc1S(N)(=O)=O [Pazopanib] | 102 ± 15 | 86.8 ± 3.6 | 110 ± 3.6 | 73.8 ± 16 | 88.8 ± 3 | 52.6 ± 23 | 60.8 ± 12 | 30.5 ± 1.7 | 97 ± 39 | 90.5 ± 16 | 88.68 ± 0.85 | 66.1 ± 19 | 95.4 ± 1.7 | 95.2 ± 1.4 | 95 ± 15 | 56.8 ± 1.5 | 96.1 ± 6.7 | 48.9 ± 20 | 93.1 ± 34 | 49.1 ± 5.4
12 | O=C(CCc1ccc(O)cc1)c1c(O)cc(O)cc1O [Phloretin] | 102 ± 36 | 105 ± 16 | 96.7 ± 8.2 | 107 ± 15 | 91.1 ± 42 | 100 ± 55 | 74 ± 11 | 112 ± 13 | 83.2 ± 2.8 | 103 ± 20 | 127 ± 16 | 106.6 ± 0.71 | 104 ± 10 | 105 ± 7 | 101 ± 13 | 113 ± 11 | 76.3 ± 4.5 | 76.5 ± 1 | 100 ± 1.3 | 90.5 ± 3.9
